Data taken from publication PMC9919861, “Homoleptic Complexes of Heterocyclic Curcuminoids with Mg(II) and Cu(II): First Conformationally Heteroleptic Case, Crystal Structures, and Biological Properties” (Molecules, 2023).

Assays:
[1] = tested on: lipid peroxidation in rat brain homogenate; assay: Inhibition of lipid peroxidation (TBARS) in rat brain homogenate, FeSO4-induced; assay type: biochemical
Procedure: Adult male Wistar rats (200–250 g) were provided by the Instituto de Fisiología Celular, Universidad Nacional Autónoma de México (UNAM). The procedures and care of animals were conducted in conformity with the Mexican Official Norm for Animal Care and Handling NOM-062-ZOO-1999. They were maintained at 23 ± 2 °C on a 12/12 h light-dark cycle with ad libitum access to food and water.
Animal sacrifice was carried out avoiding unnecessary pain. The rats were sacrificed with CO2. The cerebral tissue (whole brain) was rapidly dissected and homogenized in phosphate-buffered saline (PBS) solution (0.2 g of KCl, 0.2 g of KH2PO4, 8 g of NaCl, and 2.16 g of NaHPO4.7H2O/L, pH adjusted to 7.4) as described elsewhere to produce a 1/10 (w/v) homogenate. The homogenate was centrifuged at 800 rcf (relative centrifugal field) for 10 min. The supernatant protein content was measured using Folin and Ciocalteu’s phenol reagent and adjusted with PBS at 2.666 mg of protein/mL.
As an index of lipid peroxidation, TBARS levels were measured using rat brain homogenates according to the method described by Ng and co-workers, with some modifications. A supernatant (375 µL) was added with 50 µL of 20 µM EDTA and 25 µL of each sample concentration dissolved in DMSO (25 µL of DMSO for the control group) and incubated at 37 °C for 30 min. The lipid peroxidation was started adding 50 µL of freshly prepared 100 µM FeSO4 solution (final concentration 10 µM) and incubated at 37 °C for 1h. The TBARS measurements were obtained as described by Ohkawa and co-workers, with some modifications. To each tube 500 µL of TBA reagent (0.5% 2-thiobarbituric acid in 0.05 N NaOH and 30% trichloroacetic acid, in 1:1 ratio) was added and the final suspension was cooled on ice for 10 min, centrifuged at 13,400 rcf for 5 min and heated at 80 °C in a water bath for 30 min. After cooling at room temperature, the absorbance of 200 µL of supernatant was measured at λ = 540 nm in a Microplate Reader Synergy/HT BIOTEK Instrument, Inc., Winooski, VT, USA. The concentration of TBARS was calculated by interpolation on a standard curve of tetra-methoxypropane (TMP) as a precursor of MDA [38]. Results are expressed as n moles of TBARS per mg of protein. The inhibition ratio (IR [%]) was calculated using the formula IR = (C − E) × 100/C, where C is the control absorbance and E is the sample absorbance. Butylated hydroxytoluene (BHT) and α tocopherol were used as positive standards. All data are presented as mean ± standard error (SEM). The data were analyzed by one-way analysis of variance (ANOVA) followed by Dunnett’s test for comparison against a control. Values of p ≤ 0.05 (*) and p ≤ 0.01 (**) were considered statistically significant.

[2] = Cytotoxicity towards healthy cell line; assay type: cell-based, monkey; conditions: monkey, COS-7 kidney cells; COS7; 25 μM; read-out: % of Inhibition (cytotoxic screening)
[3] = tested on: HCT-15 (human colon adenocarcinoma); assay: Cytotoxicity, sulforhodamine B (SRB) microculture assay; assay type: cell-based; conditions: Homo sapiens, 25 μM, read-out: % of Inhibition (cytotoxic screening)
Procedure: (§1) The cytotoxicity of all compounds was tested against six cancer cell lines: U251 (human glioblastoma cell line), PC-3 (human prostate adenocarcinoma), K562 (human chronic myelogenous leukemia), HCT-15 (human colon adenocarcinoma), MCF-7 (human mammary adenocarcinoma), and SKLU-1 (human lung adenocarcinoma). Cell lines were supplied by the U.S. National Cancer Institute (NCI). The cell lines were cultured in an RPMI-1640 medium supplemented with 10% fetal bovine serum, […] L-glutamine, 10,000 units/mL penicillin G sodium, 10,000 µg/mL streptomycin sulfate, 25 µg/mL amphotericin B (Invitrogen/Gibco™, Thermo Fisher Scientific, Waltham, MA, USA), and 1% non-essential amino acids (Gibco). They were maintained at 37 °C in a humidified atmosphere with 5% CO2. […] The human tumor cytotoxicity was determined using the protein-binding dye sulforhodamine B (SRB) in a microculture assay to measure cell growth, as described in the protocols established by the NCI [39, 40, 41].

[4] = tested on: PC-3 (human prostate adenocarcinoma); assay: as above; assay type: cell-based; conditions: Homo sapiens
Procedure: as §1

[5] = tested on: U251 (human glioblastoma cell line); assay: as above; assay type: cell-based; conditions: Homo sapiens
Procedure: as §1

[6] = tested on: MCF-7 (human mammary adenocarcinoma); assay: as above; assay type: cell-based; conditions: Homo sapiens, MCF7, 25 μM, read-out: % of Inhibition (cytotoxic screening)
Procedure: as §1

[7] = tested on: SKLU-1 (human lung adenocarcinoma); assay: as above; assay type: cell-based; conditions: Homo sapiens
Procedure: as §1

[8] = tested on: K562 (human chronic myelogenous leukemia); assay: as above; assay type: cell-based; conditions: Homo sapiens, 25 μM, read-out: % of Inhibition (cytotoxic screening)
Procedure: as §1

O=C(/C=C(O)/C=C/c1ccco1)/C=C/c1ccco1 [FuranCurc, Furancurcumin]
Inhibition (%) of lipid peroxidation ([1]; 13.34 μM, mean ± SEM, n = 3): 5.6 ± 5.31% | TBARS ([1]; 13.34 μM, mean ± SEM, n = 3): 9.385 ± 0.416 nmol/mg prot. | Inhibition (%) of lipid peroxidation ([1]; 17.78 μM, mean ± SEM, n = 3): 13.14 ± 5.84% | TBARS ([1]; 17.78 μM, mean ± SEM, n = 3): 8.634 ± 0.462 nmol/mg prot. | Inhibition (%) of lipid peroxidation ([1]; 23.71 μM, mean ± SEM, n = 3): 25.93 ± 9.98% | TBARS ([1]; 23.71 μM, mean ± SEM, n = 3): 7.356 ± 0.928 nmol/mg prot. | Inhibition (%) of lipid peroxidation ([1]; 31.62 μM, mean ± SEM, n = 3): 48.97 ± 13.11% | TBARS ([1]; 31.62 μM, mean ± SEM, n = 3): 5.091 ± 1.356 nmol/mg prot. | Inhibition (%) of lipid peroxidation ([1]; 42.17 μM, mean ± SEM, n = 3): 64.24 ± 10.44% | TBARS ([1]; 42.17 μM, mean ± SEM, n = 3): 3.590±1.114 nmol/mg prot. | Inhibition (%) of lipid peroxidation ([1]; 56.23 μM, mean ± SEM, n = 3): 81.06 ± 1.43% | TBARS ([1]; 56.23 μM, mean ± SEM, n = 3): 1.891±0.178 nmol/mg prot. | Inhibition (%) of lipid peroxidation ([1]; 74.13 μM, mean ± SEM, n = 3): 88.25 ± 1.57% | TBARS ([1]; 74.13 μM, mean ± SEM, n = 3): 1.167±0.148 nmol/mg prot. | % of Inhibition (lipoperoxidation screening) ([1]; concentration 1 (unit not given)): −6.24% | % of Inhibition (lipoperoxidation screening) ([1]; concentration 10 (unit not given)): 1.59% | % of Inhibition (lipoperoxidation screening) ([1]; concentration 100 (unit not given)): 93.46% | IC50 ([1]; rat brain homogenate, TBARS, mean ± SEM, n = 3): 33.9 ± 4.65 µM | inhibition at 25 µM [2]: 46.2% | inhibition at 25 µM [3]: 0% | IC50 [4]: 35.9 ± 3.9 µM | inhibition at 25 µM ([4]; 25 μM, read-out: % of Inhibition (cytotoxic screening)): 10.8% | IC50 ([5]; U-251): 11.7 ± 2.9 µM | inhibition at 25 µM ([5]; U-251, 25 μM, read-out: % of Inhibition (cytotoxic screening)): 0% | inhibition at 25 µM [6]: 0% | IC50 ([7]; SK-LU-1): 15.5 ± 2 µM | inhibition at 25 µM ([7]; SK-LU-1, 25 μM, read-out: % of Inhibition (cytotoxic screening)): 0% | inhibition at 25 µM [8]: 6.4%
